The values below come from PMC8196787, “Design and Pharmacodynamics of Recombinant Fungus Defensin NZL with Improved Activity against Staphylococcus hyicus In Vitro and In Vivo” (International Journal of Molecular Sciences, 2021).

In brackets after ≈: the same amount, converted by molar mass. Positions of bridges follow the written chain, without caps; N, C: chain ends. Residues, ends and D or L forms follow the SMILES beside them. Some results are limits rather than exact numbers.

One assay concerns S. hyicus ACCC 61734. The assay is described as follows: microbe, parasite or virus in culture. The format is cell-based. The conditions noted are these: S. hyicus ACCC 61734 (clinical strain); microbroth dilution, MHB, 37 °C, 16–20 h, triplicate. On the procedure: (§1) The microbroth dilution method was used to evaluate the MIC values of new derivative peptides. […] The MIC value was defined as the lowest concentration where no visible bacteria growth occurred after overnight incubation. CRO was used as the positive control. All assays were conducted in triplicate.

In another assay the test system is S. aureus ATCC 43300. The assay is described as follows: microbe, parasite or virus in culture. It counts as cell-based. The conditions noted are these: S. aureus ATCC 43300; microbroth dilution, MHB, 1 × 10^5 CFU/mL, 37 °C, 16–20 h, peptides 1–256 μg/mL, triplicate. How it is done:
as §1

For assay [1], the system named is isolated S. hyicus (n = 207). The conditions noted are these: n = 207 isolates, Japan; cited from earlier work. An excerpt: Staphylococcus hyicus is one of the opportunistic and commensal pathogens which can cause acute infections to animals and humans. It was reported that exfoliative toxins-producing S. hyicus is primarily known as the most common causative agent of exudative epidermitis in pigs, which occurs typically as an acute skin lesions characterized by sebaceous exudation, exfoliation, and vesicle formation. This disease with prominent morbidity and mortality occurs worldwide, resulting in considerable economic losses in the swine industry. To date, piglets infected with S. hyicus are fr ...

For the compound `CC[C@H](C)[C@@H]1NC(=O)[C@H](CO)NC(=O)[C@H](CCCCN)NC(=O)[C@@H]2CSSC[C@@H](C(=O)N[C@@H](Cc3ccc(O)cc3)C(=O)O)NC(=O)[C@H](CCCCN)NC(=O)[C@@H]3CSSC[C@H](NC(=O)[C@H](CCC(N)=O)NC(=O)[C@H](CC(C)C)NC(=O)[C@H](CC(=O)O)NC(=O)[C@H](CC(=O)O)NC(=O)[C@H](CCC(=O)O)NC(=O)[C@H](CO)NC(=O)[C@H](Cc4c[nH]c5ccccc45)NC(=O)[C@@H]4CCCN4C(=O)CNC(=O)[C@H](CC(N)=O)NC(=O)[C@@H](NC(=O)CNC(=O)[C@H](Cc4ccccc4)NC(=O)CN)CSSC[C@H](NC(=O)[C@H](Cc4ccc(O)cc4)NC(=O)CNC(=O)CNC(=O)[C@H](CCCCN)NC(=O)[C@H](Cc4ccc(O)cc4)NC(=O)CNC(=O)[C@H](CCCCN)NC1=O)C(=O)N[C@@H](C)C(=O)N[C@@H](CCCNC(=N)N)C(=O)NCC(=O)NCC(=O)N[C@@H](Cc1ccccc1)C(=O)N[C@@H](C(C)C)C(=O)N3)C(=O)N[C@@H](Cc1c[nH]cn1)C(=O)N[C@@H](CC(N)=O)C(=O)N[C@@H](Cc1c[nH]cn1)C(=O)N2` [Peptide 7] (H-GFGCNGPWSEDDLQCHNHCKSIKGYKGGYCARGGFVCKCY-OH; disulfide 4-30, 15-37, 19-39; N-terminus and C-terminus assumed), the MIC against S. hyicus ACCC 61734 was 4 µg/mL (≈ 0.912 µM); in the assay with S. aureus ATCC 43300, 2 µg/mL (≈ 0.456 µM). For the compound `CC[C@H](C)[C@@H]1NC(=O)[C@H](CO)NC(=O)[C@H](CCCCN)NC(=O)[C@@H]2CSSC[C@@H](C(=O)N[C@@H](Cc3ccc(O)cc3)C(=O)O)NC(=O)[C@H](CCCCN)NC(=O)[C@@H]3CSSC[C@H](NC(=O)[C@H](CCCNC(=N)N)NC(=O)[C@H]([C@@H](C)CC)NC(=O)[C@H](CC(=O)O)NC(=O)[C@H](CC(=O)O)NC(=O)[C@H](CCC(=O)O)NC(=O)[C@H](CO)NC(=O)[C@H](Cc4c[nH]c5ccccc45)NC(=O)[C@@H]4CCCN4C(=O)CNC(=O)[C@H](CC(N)=O)NC(=O)[C@@H](NC(=O)CNC(=O)[C@H](Cc4ccccc4)NC(=O)CN)CSSC[C@H](NC(=O)[C@H](Cc4ccc(O)cc4)NC(=O)CNC(=O)CNC(=O)[C@H](CCCCN)NC(=O)[C@H](Cc4ccc(O)cc4)NC(=O)CNC(=O)[C@H](CCCCN)NC1=O)C(=O)N[C@@H](C)C(=O)N[C@@H](CO)C(=O)N[C@@H](C)C(=O)NCC(=O)N[C@@H](Cc1ccccc1)C(=O)N[C@@H](C(C)C)C(=O)N3)C(=O)N[C@@H](Cc1c[nH]cn1)C(=O)N[C@@H](CC(N)=O)C(=O)N[C@@H](Cc1c[nH]cn1)C(=O)N2` [Peptide 8] (H-GFGCNGPWSEDDIRCHNHCKSIKGYKGGYCASAGFVCKCY-OH; disulfide 4-30, 15-37, 19-39; N-terminus and C-terminus assumed), the results for the MIC with S. hyicus ACCC 61734 and in the assay on S. aureus ATCC 43300 were 128 µg/mL (≈ 29.4 µM) and 64 µg/mL (≈ 14.7 µM), respectively.

As to `CC[C@H](C)[C@@H]1NC(=O)[C@H](CO)NC(=O)[C@H](CCCCN)NC(=O)[C@@H]2CSSC[C@@H](C(=O)N[C@@H](Cc3ccc(O)cc3)C(=O)O)NC(=O)[C@H](CCCCN)NC(=O)[C@@H]3CSSC[C@H](NC(=O)[C@H](CCCCN)NC(=O)[C@H](CC(C)C)NC(=O)[C@H](CC(=O)O)NC(=O)[C@H](CC(=O)O)NC(=O)[C@H](CCC(=O)O)NC(=O)[C@H](CCC(N)=O)NC(=O)[C@H](Cc4c[nH]c5ccccc45)NC(=O)[C@@H]4CCCN4C(=O)CNC(=O)[C@H](CC(N)=O)NC(=O)[C@@H](NC(=O)CNC(=O)[C@H](Cc4ccccc4)NC(=O)CN)CSSC[C@H](NC(=O)[C@H](Cc4ccc(O)cc4)NC(=O)CNC(=O)CNC(=O)[C@H](CCCCN)NC(=O)[C@H](Cc4ccc(O)cc4)NC(=O)CNC(=O)[C@H](CCCCN)NC1=O)C(=O)N[C@@H](C)C(=O)N[C@@H](CO)C(=O)N[C@@H](C)C(=O)NCC(=O)N[C@@H](Cc1ccccc1)C(=O)N[C@@H](C(C)C)C(=O)N3)C(=O)N[C@@H](Cc1c[nH]cn1)C(=O)N[C@@H](CC(N)=O)C(=O)N[C@@H](Cc1c[nH]cn1)C(=O)N2` [Peptide 9] (H-GFGCNGPWQEDDLKCHNHCKSIKGYKGGYCASAGFVCKCY-OH; disulfide 4-30, 15-37, 19-39; N-terminus and C-terminus assumed), the MIC with S. hyicus ACCC 61734 came out at 8 µg/mL (≈ 1.83 µM); against S. aureus ATCC 43300 it was 4 µg/mL (≈ 0.915 µM).

Consider `CC[C@H](C)[C@@H]1NC(=O)[C@H](CO)NC(=O)[C@H](CCCCN)NC(=O)[C@@H]2CSSC[C@@H](C(=O)N[C@@H](Cc3ccc(O)cc3)C(=O)O)NC(=O)[C@H](CCCCN)NC(=O)[C@@H]3CSSC[C@H](NC(=O)[C@H](CCC(N)=O)NC(=O)[C@H]([C@@H](C)CC)NC(=O)[C@H](CC(=O)O)NC(=O)[C@H](CC(=O)O)NC(=O)[C@H](CCC(=O)O)NC(=O)[C@H]([C@@H](C)O)NC(=O)[C@H](Cc4c[nH]c5ccccc45)NC(=O)[C@@H]4CCCN4C(=O)CNC(=O)[C@H](CC(N)=O)NC(=O)[C@@H](NC(=O)CNC(=O)[C@H](Cc4ccccc4)NC(=O)CN)CSSC[C@H](NC(=O)[C@H](Cc4ccc(O)cc4)NC(=O)CNC(=O)CNC(=O)[C@H](CCCCN)NC(=O)[C@H](Cc4ccc(O)cc4)NC(=O)CNC(=O)[C@H](CCCCN)NC1=O)C(=O)N[C@@H](C)C(=O)N[C@@H](CCCNC(=N)N)C(=O)NCC(=O)NCC(=O)N[C@@H](Cc1ccccc1)C(=O)N[C@@H](C(C)C)C(=O)N3)C(=O)N[C@@H](Cc1c[nH]cn1)C(=O)N[C@@H](CC(N)=O)C(=O)N[C@@H](Cc1c[nH]cn1)C(=O)N2` [Peptide 10] (H-GFGCNGPWTEDDIQCHNHCKSIKGYKGGYCARGGFVCKCY-OH; disulfide 4-30, 15-37, 19-39; N-terminus and C-terminus assumed), for which the MIC with S. hyicus ACCC 61734 and with S. aureus ATCC 43300 was greater than 128 µg/mL throughout. As for `CC1(C)S[C@@H]2[C@H](NC(=O)[C@H](N)c3ccccc3)C(=O)N2[C@H]1C(=O)O` [ampicillin], the “Isolated S. hyicus resistant to the drug” value in assay [1] is 76.8%. On to `O=C(N[C@H](CO)[C@H](O)c1ccc([N+](=O)[O-])cc1)C(Cl)Cl` [chloramphenicol], for which, in assay [1], the “Isolated S. hyicus resistant to the drug” value was 24.2%. Turning to `C[C@H]1c2cccc(O)c2C(=O)C2=C(O)[C@]3(O)C(=O)C(C(N)=O)=C(O)[C@@H](N(C)C)[C@@H]3[C@@H](O)[C@@H]21` [doxycycline], the “Isolated S. hyicus resistant to the drug” value in assay [1] is on record as 1.4%.

As to `CC[C@H]1OC(=O)[C@H](C)[C@@H](O[C@H]2C[C@@](C)(OC)[C@@H](O)[C@H](C)O2)[C@H](C)[C@@H](O[C@@H]2O[C@H](C)C[C@H](N(C)C)[C@H]2O)[C@](C)(O)C[C@@H](C)C(=O)[C@H](C)[C@@H](O)[C@]1(C)O` [erythromycin], the “Isolated S. hyicus resistant to the drug” value in assay [1] is on record as 56%.

On to `NC[C@H]1O[C@H](O[C@H]2[C@H](O)[C@@H](O[C@H]3O[C@H](CO)[C@@H](O)[C@H](N)[C@H]3O)[C@H](N)C[C@@H]2N)[C@H](O)[C@@H](O)[C@@H]1O` [kanamycin], for which the “Isolated S. hyicus resistant to the drug” value in assay [1] was 19.8%. Consider penicillin, for which the “Isolated S. hyicus resistant to the drug” value in assay [1] is given as 76.8%.
